Test results published in patent US10524472B2, “Elicitor peptides having disrupted hypersensitive response box and use thereof” (Plant Health Care, Inc., priority 2014, dated 2020).
Marks after values point to notes of the source that are not given here.

system: tobacco mosaic virus (TMV); test: Induction of resistance to tobacco mosaic virus in tobacco; assay type: in vivo; conditions: foliar spray

| Substance | TMV response / effectiveness against TMV infection (summary of Table 22) |
| --- | --- |
| SEEEEELTLTGVLQKLLKIL (P25-14) | weaker control of TMV infection |
| SEEEELDQLLTQLI (P1-31) | anti-TMV activity |
| SQGISEKQLDQLLSQAIQALLQP (P4-14S-16A) | weaker TMV responses |
| SQGISEKQLDQLLSQL (P4-116) | reduced effectiveness against TMV infection |
| SQGISEKQLDQLLSQLIQAVLQP (P4-14S-20V) | weaker TMV responses |
| SQGISEKQLDQLLSQVIQALLQP (P4-14S-16V) | produced the best results |
| SQGISEKQL_QLL_QLI_ALLQP (SQGISEKQLQLLQLIALLQP; P4-d10,14,18) | moderate reduction in effectiveness against TMV infection |

same assay, conditions: spray 10 ug/ml, TMV 3 days post-treatment, scored 3 days after inoculation

| Substance | Effectiveness Covered (%) (decline in TMV lesions vs UTC, systemic response) | Effectiveness Uncovered (%) (decline in TMV lesions vs UTC, local response) |
| --- | --- | --- |
| SQGISEKQLADQLLASQLIAQALLQP (P4-i10A,14A,18A) | 69% | 75 |
| SQGISEKQLADQLLSQLIQALLQP (P4-i10A) | 81% | 92 |
| SQGISEKQLDQLLASQLIQALLQP (P4-i14A) | 77% | 75 |
| SQGISEKQLDQLLSQAIQALLQP (P4-14S-16A) | 3% | 1 |
| SQGISEKQLDQLLSQL (P4-116) | 0* % | 52 |
| SQGISEKQLDQLLSQLFQALLQP (P4-14S-17F) | 57% | 94 |
| SQGISEKQLDQLLSQLI (P4-111) | 65% | 58 |
| SQGISEKQLDQLLSQLIAQALLQP (P4-i18A) | 50% | 81 |
| SQGISEKQLDQLLSQLIQALDQP (P4-14S-21D) | 48% | 49 |
| SQGISEKQLDQLLSQLIQAVLQP (P4-14S-20V) | −29% | −26 |
| SQGISEKQLDQLLSQLI_ALLQP (SQGISEKQLDQLLSQLIALLQP; P4-d18) | 15% | 65 |
| SQGISEKQLDQLLSQVIQALLQP (P4-14S-16V) | 85* % | 78 |
| SQGISEKQL_QLL_QLI_ALLQP (SQGISEKQLQLLQLIALLQP; P4-d10,14,18) | 37% | 55 |

same assay, conditions: spray 20 ug/ml, TMV 3 days post-treatment, scored 3 days after inoculation

| Substance | Effectiveness Covered (%) (decline in TMV lesions vs UTC, systemic response) | Effectiveness Uncovered (%) (decline in TMV lesions vs UTC, local response) |
| --- | --- | --- |
| SEEEEELQQLLKLFSEILQ (P3-10) | 95* % | 94* % |
| SEEEEELTGVLQKLLK_ILE (SEEEEELTGVLQKLLKILE; P25-12) | 58% | 77* % |
| SEEEEELTGVLQKLSKILEAL (P25min-15S) | 74* % | 81* % |
| SEEEEELTLTGVLQKLLKIL (P25-14) | −87% | 52% |
| SEEEELDQLLSQLI (P4-115) | 87* % | 87* % |
| SEEEELDQLLTQLI (P1-31) | 88* % | 95* % |
